Results reported in the CheMixHub ionic liquid set.

Experiment: xn = mol fraction of the nth substance listed
Conditions: 101 kPa, frequency 2 MHz

O=S(=O)([O-])C(F)(F)F.[Li+] + O=S(=O)([N-]S(=O)(=O)C(F)(F)F)C(F)(F)F.[Li+] + O
electrical conductivity [S/m]
Conditions | 273 K | 278 K | 283 K | 288.1 K | 293 K | 298.1 K
x2 = 0.001799, x1 = 0.0005943 | 0.413 | 0.475 | 0.542 | 0.615 | 0.693 | 0.778
x2 = 0.005377, x1 = 0.001799 | 0.96 | 1.114 | 1.28 | 1.47 | 1.67 | 1.89
x2 = 0.00893, x1 = 0.003054 | 1.38 | 1.606 | 1.86 | 2.134 | 2.434 | –
x2 = 0.01246, x1 = 0.004127 | 1.716 | 2.004 | 2.323 | 2.67 | 3.05 | –
x2 = 0.01596, x1 = 0.005377 | 1.99 | 2.33 | 2.704 | 3.116 | 3.56 | –
x2 = 0.01944, x1 = 0.006623 | 2.219 | 2.6 | 3.017 | 3.48 | 3.98 | –
x2 = 0.05129, x1 = 0.0177 | 2.96 | 3.47 | 4.041 | 4.67 | 5.346 | –
x2 = 0.08265, x1 = 0.02921 | 2.59 | 3.039 | 3.538 | 4.09 | 4.68 | –
x2 = 0.112, x1 = 0.04029 | 1.98 | 2.329 | 2.718 | 3.147 | 3.616 | –
x2 = 0.1395, x1 = 0.05129 | 1.422 | 1.68 | 1.97 | 2.29 | 2.648 | –
x2 = 0.1654, x1 = 0.06203 | 0.985 | 1.17 | 1.39 | 1.625 | 1.89 | –
x2 = 0.1898, x1 = 0.07238 | 0.666 | 0.802 | 0.957 | 1.133 | 1.331 | –
x2 = 0.2128, x1 = 0.08265 | 0.443 | 0.54 | 0.652 | 0.782 | 0.929 | –
x2 = 0.2345, x1 = 0.0927 | 0.291 | 0.36 | 0.441 | 0.535 | 0.644 | –
x2 = 0.2551, x1 = 0.1024 | 0.189 | 0.237 | 0.295 | 0.364 | 0.445 | –
x2 = 0.2745, x1 = 0.112 | 0.121 | 0.155 | 0.196 | 0.246 | 0.305 | –
